# In paper PMC8036738, “Evaluation of Selective COX-2 Inhibition and In Silico Study of Kuwanon Derivatives Isolated from Morus alba” (International Journal of Molecular Sciences, 2021):
# Where two headings read alike, the source gives them in different places.
# How the values were obtained:
# Assay type in all cases: biochemical, ovine
# COX-1 = biological target: T1, COX-1 (Ovis aries, UniProt P05979); test: in vitro COX-1 enzyme inhibition assay (fluorometric inhibitor screening kit)
# T1 construct: purchased BioVision
# T1 sequence (P05979 25-600): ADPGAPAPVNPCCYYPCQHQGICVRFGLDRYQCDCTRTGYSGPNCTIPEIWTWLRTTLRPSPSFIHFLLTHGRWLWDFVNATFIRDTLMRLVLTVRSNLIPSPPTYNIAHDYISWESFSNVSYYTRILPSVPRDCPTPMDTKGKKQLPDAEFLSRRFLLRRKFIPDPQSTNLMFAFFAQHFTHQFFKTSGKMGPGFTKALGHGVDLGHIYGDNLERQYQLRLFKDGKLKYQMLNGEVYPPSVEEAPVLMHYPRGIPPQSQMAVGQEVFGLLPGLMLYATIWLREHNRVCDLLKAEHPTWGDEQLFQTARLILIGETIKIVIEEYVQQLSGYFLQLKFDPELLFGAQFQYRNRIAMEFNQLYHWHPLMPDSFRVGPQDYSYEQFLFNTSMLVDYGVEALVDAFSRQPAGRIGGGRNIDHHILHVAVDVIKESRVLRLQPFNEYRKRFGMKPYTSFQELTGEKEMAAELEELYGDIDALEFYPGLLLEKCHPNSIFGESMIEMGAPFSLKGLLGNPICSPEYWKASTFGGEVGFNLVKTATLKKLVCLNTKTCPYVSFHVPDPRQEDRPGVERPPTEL
# Procedure: (§1) Dimethyl sulfoxide (DMSO) and COX-1/2 Inhibitor Screening Kit (BioVison, California, CA, USA) were used according to the manufacturer’s instructions. All other reagents used were of the highest purity commercially available. All samples were dissolved in DMSO at a concentration of 100 mM.
# (§2) The ability of the test compounds to inhibit COX-1 and COX-2 isoenzymes in vitro was determined using a Biovision fluorometric COX-1/-2 inhibitor screening assay kit. Briefly, the COX assay buffer (75 μL), COX cofactor working solution (2 μL), COX probe solution (1 μL), recombinant COX-1 or COX-2 (1 μL), arachidonic acid/NaOH solution (10 μL), and test solution (10 μL) were mixed in a 96-well plate, and the fluorescence kinetics were measured for 10 min at 25 °C. […] Fluorescence was measured using a microplate spectrophotometer (Bio-Tek, Winooski, VT, USA). Two points (T1 and T2) in the linear range of the plot were used to obtain the corresponding fluorescence values (RFU1 and RFU2). Then, the slope for all samples (S) was calculated by dividing the net ΔRFU (RFU2 − RFU1) values by the time ΔT (T2 − T1) using the following equation: Relative inhibition (%) = ((slope of the enzyme control − slope of S)/(slope of the enzyme control)) × 100.
# (§3) The samples were evaluated in triplicates at five different concentrations.
# COX-2 [1] = test: in vitro COX-2 enzyme inhibition assay (fluorometric inhibitor screening kit)
# Procedure: as §1, §2, §3
# COX-2 [2] = biological target: T2, COX-2 (Homo sapiens, UniProt P35354); test: as above
# T2 sequence (P35354 18-604): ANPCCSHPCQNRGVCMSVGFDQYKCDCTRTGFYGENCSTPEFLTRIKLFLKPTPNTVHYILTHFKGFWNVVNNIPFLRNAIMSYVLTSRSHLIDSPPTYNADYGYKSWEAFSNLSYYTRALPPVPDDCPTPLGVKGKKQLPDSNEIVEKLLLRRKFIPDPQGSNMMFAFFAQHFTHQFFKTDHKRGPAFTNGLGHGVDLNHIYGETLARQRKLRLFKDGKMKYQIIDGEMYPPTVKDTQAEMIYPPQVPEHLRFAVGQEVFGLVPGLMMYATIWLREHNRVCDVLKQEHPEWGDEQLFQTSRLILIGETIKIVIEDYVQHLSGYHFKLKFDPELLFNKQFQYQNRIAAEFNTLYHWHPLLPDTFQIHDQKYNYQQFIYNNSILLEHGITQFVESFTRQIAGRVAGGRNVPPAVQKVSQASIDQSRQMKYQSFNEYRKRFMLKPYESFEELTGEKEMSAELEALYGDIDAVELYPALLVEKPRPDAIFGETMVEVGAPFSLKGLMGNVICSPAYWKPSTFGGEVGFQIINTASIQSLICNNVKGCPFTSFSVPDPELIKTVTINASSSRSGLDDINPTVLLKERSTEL
# Procedure: as §1, §2, §3
# [3] = triplicates at five concentrations, read-out: IC50 COX-1
smiles,measurement,setting,value
"CC(C)=CCc1c(-c2ccc(O)c3c2OC(C)(C)C=C3)oc2cc(O)cc(O)c2c1=O [Kuwanon A, kuwanon A]",IC50,COX-1; [3],> 100 µM
same,"SI (selectivity index, COX-1 IC50/COX-2 IC50)",COX-2 [1],>7.1
"CC(C)=CCc1c(-c2ccc3c(c2O)C=CC(C)(C)O3)oc2cc(O)cc(O)c2c1=O [Kuwanon B, kuwanon B]",IC50,COX-1; [3],36 µM
same,"SI (selectivity index, COX-1 IC50/COX-2 IC50)",COX-2 [1],1.3
"CC(C)=CCc1c(-c2ccc(O)cc2O)oc2c(CC=C(C)C)c(O)cc(O)c2c1=O [Kuwanon C, kuwanon C]",IC50,COX-1,67 µM
"CC(C)=CCC/C(C)=C/Cc1cc(C2CC(=O)c3c(O)cc(O)cc3O2)c(O)cc1O (stereo not shown) [Kuwanon E, kuwanon E]",IC50,COX-1; [3],46 µM
same,"SI (selectivity index, COX-1 IC50/COX-2 IC50)",COX-2 [1],1.4
"CC(C)=CCc1c(-c2ccc(O)cc2O)oc2c(C3C=C(C)CC(c4ccc(O)cc4O)C3C(=O)c3ccc(O)cc3O)c(O)cc(O)c2c1=O (stereo not shown) [Kuwanon G, kuwanon G]",IC50,COX-1; [3],> 100 µM
same,COX-2 inhibition activity (in words),COX-2 [2],no COX-2 inhibition activity
"CC(C)=CCc1c(O)ccc(C(=O)C2C(c3c(O)cc(O)c4c(=O)c(CC=C(C)C)c(-c5ccc(O)cc5O)oc34)C=C(C)CC2c2ccc(O)cc2O)c1O (stereo not shown) [Kuwanon H, kuwanon H]",IC50,COX-1; [3],37 µM
